Results on four compounds are retold here after article PMC4737552 (Neuropharmacology, 2015).

Data set [1] addresses human α1β1γ2 GABAA receptor (Homo sapiens, UniProt P14867+P18505+P18507, DEL377-384, form not given). In words: Whole-cell patch clamp, HEK293 cells expressing α1β1γ2 GABAARs. In kind it is cell-based.
In data set [2] the target is human α2β2γ2 GABAA receptor (Homo sapiens, UniProt P18507+P47869+P47870, DEL377-384, form not given). In words: Whole-cell patch clamp, HEK293 cells expressing α2β2γ2 GABAARs. In kind it is cell-based.
The target of data set [3] is human α1β2γ2 GABAA receptor (Homo sapiens, UniProt P14867+P18507+P47870, DEL377-384, form not given). In kind it is cell-based. Conditions: for Enhancement of GABA current by carisoprodol, % of control: 100 µM CSP.
The target of data set [4] is T1, human α1β2 GABAA receptor (Homo sapiens, UniProt P14867+P47870).
T1 sequence (P14867 28-456): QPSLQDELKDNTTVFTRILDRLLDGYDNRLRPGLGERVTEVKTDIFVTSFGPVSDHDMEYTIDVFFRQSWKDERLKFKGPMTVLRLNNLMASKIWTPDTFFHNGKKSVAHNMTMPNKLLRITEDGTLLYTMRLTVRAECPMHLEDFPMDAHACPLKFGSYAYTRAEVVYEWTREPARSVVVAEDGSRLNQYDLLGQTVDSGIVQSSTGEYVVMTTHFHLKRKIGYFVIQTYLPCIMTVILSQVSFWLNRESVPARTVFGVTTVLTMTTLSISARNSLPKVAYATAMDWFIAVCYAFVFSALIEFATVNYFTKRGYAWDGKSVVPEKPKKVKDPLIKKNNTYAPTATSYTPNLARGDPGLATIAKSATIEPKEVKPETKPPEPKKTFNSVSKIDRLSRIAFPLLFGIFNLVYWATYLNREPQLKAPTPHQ
T1 sequence (P47870 25-512 limits assumed): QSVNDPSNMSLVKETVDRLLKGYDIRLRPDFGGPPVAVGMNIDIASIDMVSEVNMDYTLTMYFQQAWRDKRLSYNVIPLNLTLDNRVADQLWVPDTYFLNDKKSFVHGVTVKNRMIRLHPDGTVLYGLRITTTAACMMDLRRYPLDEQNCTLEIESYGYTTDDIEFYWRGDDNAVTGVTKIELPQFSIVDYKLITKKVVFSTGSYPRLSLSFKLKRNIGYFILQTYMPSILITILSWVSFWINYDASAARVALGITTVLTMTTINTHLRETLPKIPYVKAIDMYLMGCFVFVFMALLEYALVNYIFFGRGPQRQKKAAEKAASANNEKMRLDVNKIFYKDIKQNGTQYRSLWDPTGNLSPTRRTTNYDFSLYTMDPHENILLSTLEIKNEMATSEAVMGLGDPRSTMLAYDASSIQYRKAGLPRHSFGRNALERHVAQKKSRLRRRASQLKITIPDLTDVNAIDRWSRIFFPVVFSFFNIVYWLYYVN
In kind it is cell-based.

Data set [5] has as its target human α3β2γ2 GABAA receptor (Homo sapiens, UniProt P18507+P34903+P47870, DEL377-384, form not given). Description: Whole-cell patch clamp, HEK293 cells expressing α3β2γ2 GABAARs. In kind it is cell-based.
Data set [6] concerns the target human α6β2γ2 GABAA receptor (Homo sapiens, UniProt P18507+P47870+Q16445, DEL377-384, form not given). Description: Whole-cell patch clamp, HEK293 cells expressing α6β2γ2 GABAARs. In kind it is cell-based.
Another data set addresses rat α4β3δ GABAA receptor (Rattus norvegicus, UniProt P18506+P28471+P63079). Description: Whole-cell patch clamp, HEK293 cells expressing extrasynaptic rat α4β3δ GABAARs. Conditions: for Potentiation of saturating (maximal) GABA currents: sub-gating concentration of drug. In kind it is cell-based.
Data set [7] deals with T2, rat α1β3δ GABAA receptor (Rattus norvegicus, UniProt P18506+P62813+P63079). Conditions: for Potentiation of saturating (maximal) GABA currents: sub-gating concentration of drug.
T2 sequence (P62813 28-455): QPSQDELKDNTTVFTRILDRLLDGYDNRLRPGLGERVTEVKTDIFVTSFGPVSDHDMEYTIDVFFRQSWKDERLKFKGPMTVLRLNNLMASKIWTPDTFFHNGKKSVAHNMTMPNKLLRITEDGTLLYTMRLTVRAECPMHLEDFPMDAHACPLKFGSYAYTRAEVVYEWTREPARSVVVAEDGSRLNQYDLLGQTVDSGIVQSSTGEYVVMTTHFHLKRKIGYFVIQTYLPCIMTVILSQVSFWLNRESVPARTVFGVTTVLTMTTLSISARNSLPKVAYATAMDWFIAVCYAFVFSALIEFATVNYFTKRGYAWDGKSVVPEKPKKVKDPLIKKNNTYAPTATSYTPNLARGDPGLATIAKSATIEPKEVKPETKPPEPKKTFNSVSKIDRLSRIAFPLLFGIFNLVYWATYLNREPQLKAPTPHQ
T2 sequence (P63079 26-473): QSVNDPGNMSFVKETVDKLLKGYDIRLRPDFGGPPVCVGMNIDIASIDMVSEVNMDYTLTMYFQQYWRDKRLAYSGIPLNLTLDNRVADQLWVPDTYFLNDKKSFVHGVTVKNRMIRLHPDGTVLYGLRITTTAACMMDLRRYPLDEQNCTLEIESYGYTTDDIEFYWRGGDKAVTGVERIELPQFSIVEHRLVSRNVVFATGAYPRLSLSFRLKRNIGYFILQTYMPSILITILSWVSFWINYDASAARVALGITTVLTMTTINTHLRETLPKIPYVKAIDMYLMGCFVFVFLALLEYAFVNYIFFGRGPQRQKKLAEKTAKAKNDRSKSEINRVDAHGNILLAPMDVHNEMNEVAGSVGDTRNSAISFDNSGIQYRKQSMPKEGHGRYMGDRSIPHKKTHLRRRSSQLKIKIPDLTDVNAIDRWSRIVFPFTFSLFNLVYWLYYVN
T2 sequence (P18506 17-449 limits assumed): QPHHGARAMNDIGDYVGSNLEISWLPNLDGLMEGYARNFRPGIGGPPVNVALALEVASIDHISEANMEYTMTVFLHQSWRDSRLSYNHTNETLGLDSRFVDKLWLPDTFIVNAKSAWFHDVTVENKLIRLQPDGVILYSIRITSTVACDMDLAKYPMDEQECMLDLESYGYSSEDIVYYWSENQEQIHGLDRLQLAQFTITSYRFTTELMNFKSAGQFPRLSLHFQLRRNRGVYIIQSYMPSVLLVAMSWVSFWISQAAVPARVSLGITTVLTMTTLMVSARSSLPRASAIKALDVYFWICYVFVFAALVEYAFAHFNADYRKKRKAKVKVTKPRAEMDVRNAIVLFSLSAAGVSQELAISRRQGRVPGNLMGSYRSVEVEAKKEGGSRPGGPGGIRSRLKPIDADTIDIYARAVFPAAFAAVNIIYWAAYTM
In data set [8] the target is human α5β2γ2 GABAA receptor (Homo sapiens, UniProt P18507+P31644+P47870, DEL377-384, form not given). Description: Whole-cell patch clamp, HEK293 cells expressing α5β2γ2 GABAARs. In kind it is cell-based.
The conditions of data set [9]: single dose of 350 mg; ref Littrell et al., 1993; cited from earlier work.
Data set [10] has as its target T2, rat α1β3δ GABAA receptor. In words: cell-based.
Data set [11] has as its target rat α1β3γ2 GABAA receptor (Rattus norvegicus, UniProt P18508+P62813+P63079). In words: Whole-cell patch clamp, HEK293 cells expressing rat α1β3γ2 GABAARs. In kind it is cell-based.
The target in data set [12] is T3, rat α1β3 GABAA receptor (Rattus norvegicus, UniProt P62813+P63079).
T3 sequence (P62813 28-455): as the sequence (P62813 28-455) above
T3 sequence (P63079 26-473): as the sequence (P63079 26-473) above
In data set [13] the target is T3, rat α1β3 GABAA receptor. In words: cell-based.
Data set [14] deals with αxβ2γ2 GABAA receptors, where x = α subunit 1–6. Description: Whole-cell patch clamp, direct gating across αxβ2γ2 GABAA receptors. In kind it is cell-based, human. Conditions: range over α1–α6 β2γ2 receptors.
Another data set has as its target rat α1β2 GABAA receptor (Rattus norvegicus, UniProt P62813+P63138). Description: Whole-cell patch clamp, HEK293 cells expressing rat α1β2 GABAARs. In kind it is cell-based.
The target of data set [15] is human α4β2γ2 GABAA receptor (Homo sapiens, UniProt P18507+P47870+P48169, DEL377-384, form not given). In words: Whole-cell patch clamp, HEK293 cells expressing α4β2γ2 GABAARs. In kind it is cell-based.
For data set [16] the following is noted: case reports; ref McIntyre et al., 2012; Robertson and Marinetti, 2003; cited from earlier work.
[17] abbreviates: maximum current by carisoprodol plus GABA (EC20) normalized to GABA (EC20) currents.
Where [18] appears, read: normalized to maximum GABA gated currents.
[19] abbreviates: read-out: Carisoprodol direct gating EC50, relative to maximum current elicited by carisoprodol.
Where [20] appears, read: read-out: EC50 for allosteric modulation by carisoprodol, in the presence of GABA (EC20).

SMILES strings stand for the structures. Read-outs that look alike come from different tables or passages of the source.

Sequence of rat α1β2 GABAA receptor (P62813 28-455): as the sequence (P62813 28-455) above
Sequence of rat α1β2 GABAA receptor (P63138 25-474 limits assumed): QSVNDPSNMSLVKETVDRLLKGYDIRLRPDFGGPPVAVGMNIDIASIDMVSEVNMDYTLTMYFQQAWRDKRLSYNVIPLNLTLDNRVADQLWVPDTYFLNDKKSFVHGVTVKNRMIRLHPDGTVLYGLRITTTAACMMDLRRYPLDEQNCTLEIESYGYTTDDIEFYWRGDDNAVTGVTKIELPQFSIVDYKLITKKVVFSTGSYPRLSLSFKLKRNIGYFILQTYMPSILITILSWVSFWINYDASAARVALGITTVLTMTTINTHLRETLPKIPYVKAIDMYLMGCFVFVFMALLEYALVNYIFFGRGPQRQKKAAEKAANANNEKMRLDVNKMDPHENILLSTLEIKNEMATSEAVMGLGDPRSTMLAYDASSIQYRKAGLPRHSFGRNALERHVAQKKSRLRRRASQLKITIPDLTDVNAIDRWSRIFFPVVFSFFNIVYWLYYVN
Sequence of rat α4β3δ GABAA receptor (P28471 36-552): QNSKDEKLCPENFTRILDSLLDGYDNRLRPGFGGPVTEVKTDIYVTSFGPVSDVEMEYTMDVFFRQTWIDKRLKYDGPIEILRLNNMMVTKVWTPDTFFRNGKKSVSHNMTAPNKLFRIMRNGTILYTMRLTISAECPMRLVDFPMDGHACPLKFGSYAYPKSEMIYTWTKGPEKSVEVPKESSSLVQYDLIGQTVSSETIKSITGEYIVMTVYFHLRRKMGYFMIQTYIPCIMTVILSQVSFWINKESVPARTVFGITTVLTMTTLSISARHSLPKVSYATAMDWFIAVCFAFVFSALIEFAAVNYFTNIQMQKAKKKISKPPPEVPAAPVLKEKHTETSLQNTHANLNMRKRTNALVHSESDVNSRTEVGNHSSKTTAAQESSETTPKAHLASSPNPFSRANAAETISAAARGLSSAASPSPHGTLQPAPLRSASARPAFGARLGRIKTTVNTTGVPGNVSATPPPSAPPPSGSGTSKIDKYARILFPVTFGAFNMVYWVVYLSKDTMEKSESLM
Sequence of rat α4β3δ GABAA receptor (P63079 26-473): as the sequence (P63079 26-473) above
Sequence of rat α4β3δ GABAA receptor (P18506 17-449 limits assumed): as the sequence (P18506 17-449 limits assumed) above

Turning to `NCCCC(=O)O` [GABA, γ-aminobutyric acid], the “GABA Hill Coefficient” value in [1] came out at 1.17 ± 0.09; in [2], 1.09 ± 0.12; in [3], 1.32 ± 0.03; in data set [4] (α1β2) it was 1.32 ± 0.11; in [5], 1.04 ± 0.06; in data set [6], 1.02 ± 0.12. In data set [3] (lower concentrations of GABA), the “GABA current amplitude at +60 mV as % of that recorded at −60 mV (outward rectification)” value worked out at 110%.

Regarding `Oc1noc2c1CCNC2` [THIP, 4,5,6,7-tetrahydroisoxazolo(5,4-c)pyridin-3-ol], the “THIP-gated currents, % of the amplitude of currents obtained with saturating GABA” value on rat α4β3δ GABAA receptor is listed as 153.4 ± 10.7%; on rat α1β3δ GABAA receptor [7] (α1β3δ), 135.6 ± 7.2%.

On to `CCCC(C)(COC(N)=O)COC(=O)NC(C)C` (stereo not shown) [carisoprodol, Carisoprodol], for which the “Efficacy of allosteric modulation by carisoprodol” value came out at 225.6 ± 14.6 % in [1] (setting [17]); 198.5 ± 9.5 % in [2] (setting [17]); 474.7 ± 53.5% in [3] (setting [17]); 247.6 ± 23.0 % in [8] (setting [17]); 346.7 ± 67.6% in data set [4] (α1β2, maximum current by carisoprodol plus GABA (EC20) normalized to GABA (EC20) currents); 242.7 ± 35.1 % in data set [5] (setting [17]). Further, the “Efficacy of allosteric modulation by carisoprodol” value in [6] (setting [17]) was 232.6 ± 26.9 %; in [15] (setting [17]), 240.0 ± 16.4 %. For the same compound, the “Carisoprodol direct gating Efficacy” value in data set [1] (setting [18]) turned out to be 69.7 ± 5.4 %; in data set [2] (setting [18]) it was 30.1 ± 1.4%; in [8] (setting [18]) it was 37.7 ± 3.5%; in data set [4] (α1β2, normalized to maximum GABA gated currents), 45.9 ±3%; in data set [5] (setting [18]), 13.4 ± 1.4 %; in data set [6] (setting [18]), 36.8 ± 4.7%. Further, the “Carisoprodol direct gating Efficacy” value in data set [15] (setting [18]) stood at 37.3 ± 5.0%. Further, the EC50 in [1] (setting [19]) was found to be 729 ± 58.1 µM; in [1] (setting [20]), 33.1 ± 4 µM; in data set [2] (setting [19]), 829 ± 50.2 µM; in data set [2] (setting [20]), 64.9 ± 19.1 µM; in [3] (setting [19]), 686 ± 30.4 µM; in data set [3] (setting [20]), 88.2 ± 19.9 µM. In addition, the EC50 in data set [8] (setting [19]) came to 835 ± 60.3 µM; in data set [8] (setting [20]), 90.8 ± 14.7 µM; in [4] (Carisoprodol direct gating EC50, α1β2, relative to maximum current elicited by carisoprodol), 679 ± 24.3 µM; in data set [4] (EC50 for allosteric modulation by carisoprodol, α1β2, in the presence of GABA (EC20)) it was 87.4 ± 16.4 µM; on rat α1β3δ GABAA receptor [10] (CSP gating EC50, rat α1β3δ, relative to maximum current elicited by carisoprodol), 801 ± 24.2 µM; on rat α1β3δ GABAA receptor [10] (CSP modulation EC50, rat α1β3δ, in the presence of GABA (EC20)), 109 ± 11.4 µM. In addition, the EC50 stood at 131 ± 12.4 µM in data set [11] (CSP modulation EC50, rat α1β3γ2, in the presence of GABA (EC20)); 606 ± 25.3 µM at rat α1β3 GABAA receptor [13] (CSP gating EC50, rat α1β3, relative to maximum current elicited by carisoprodol); 135 ± 12.8 µM on rat α1β3 GABAA receptor [13] (CSP modulation EC50, rat α1β3, in the presence of GABA (EC20)); 670 ± 22.2 µM at rat α1β2 GABAA receptor (CSP gating EC50, rat α1β2, relative to maximum current elicited by carisoprodol); 120 ± 10.5 µM at rat α1β2 GABAA receptor (CSP modulation EC50, rat α1β2, in the presence of GABA (EC20)); 1870 ± 92.4 µM in [5] (setting [19]). Moreover, the EC50 in [5] (setting [20]) was determined as 63.7 ± 16.5 µM; in data set [6] (setting [19]), 294 ± 28.1 µM; in data set [6] (setting [20]) it was 79.8 ± 13.8 µM; in data set [15] (setting [19]), 758 ± 61.3 µM; in data set [15] (setting [20]), 72.3 ± 10.1 µM. The “Enhancement of GABA current by carisoprodol, % of control” value is 204.8 ± 5.3% in data set [3] (+60 mV) and 285.3 ± 17.7% in data set [3] (−60 mV). Besides, the “Mean carisoprodol direct gating effect, % of maximal GABA-gated current” value in data set [3] (100 µM carisoprodol) turned out to be 2.8%. Also, in data set [3] (1 mM CSP, −60 mV vs +60 mV), the “Voltage-dependence of direct gating effect” value is on record as “not impacted by membrane voltage”. In [9], the “Onset of effects after administration” value is ≤ 30 min. The Plasma concentrations in data set [9] is 4000 to 7000 ng/mL. Further, the “Time in which plasma concentrations are reached” value in data set [9] is 2 to 4 h. In addition, the “Potentiation of saturating (maximal) GABA currents” value was “significant potentiation of maximal GABA currents” at rat α4β3δ GABAA receptor; “not seen” in data set [11] (α1β3γ2, sub-gating concentration of drug); “significant potentiation of maximal GABA currents” at rat α1β3δ GABAA receptor [7] (α1β3δ); “not seen” on rat α1β3 GABAA receptor [12] (α1β3, sub-gating concentration of drug). In addition, the “CSP gating Efficacy” value is 44.8 ± 3.23 in data set [11] (rat α1β3γ2, normalized to maximum GABA gated currents); 128.7 ± 12.3 at rat α1β3δ GABAA receptor [7] (rat α1β3δ, normalized to maximum GABA gated currents); 50.8 ± 6.24 at rat α1β3 GABAA receptor [12] (rat α1β3, normalized to maximum GABA gated currents); 44.6 ± 4.85 on rat α1β2 GABAA receptor (rat α1β2, normalized to maximum GABA gated currents). Further, the “CSP modulation Efficacy” value on rat α1β3δ GABAA receptor [7] (rat α1β3δ, maximum current by carisoprodol plus GABA (EC20) normalized to GABA (EC20) currents) is listed as 241.5 ± 25.1; at rat α1β3 GABAA receptor [12] (rat α1β3, maximum current by carisoprodol plus GABA (EC20) normalized to GABA (EC20) currents), 234.5 ± 18.9; at rat α1β2 GABAA receptor (rat α1β2, maximum current by carisoprodol plus GABA (EC20) normalized to GABA (EC20) currents) it was 442.2 ± 27.7. Further, at rat α1β3δ GABAA receptor [7] (α1β3δ), the “Carisoprodol direct gating efficacy relative to THIP” value is “roughly 90%”. The “Maximal carisoprodol-gated current, efficacy as % of maximal GABA-gated current” value in [14] is 13–43%. Also, the “Fatal blood or plasma concentration” value in data set [16] is given as ≥ 140 µM.

As for `CCCC(C)C1(CC)C(=O)NC(=O)NC1=O` (stereo not shown) [pentobarbital], the “Potentiation of saturating (maximal) GABA currents” value at rat α4β3δ GABAA receptor and on rat α1β3δ GABAA receptor [7] (α1β3δ) was “potentiation of saturating GABA currents” in each case.
